Patent US20020094522A1, “Means and methods for monitoring non-nucleoside reverse transcriptase inhibitor antiretroviral therapy and guiding therapeutic decisions in the treatment of HIV/AIDS” (priority 2000, published 2002)

Tests used:
[1] = system: RTV-1058 Clone 5 (L100I and K103N); assay: Phenotypic susceptibility assay, RTV-1058 clone 5; type: cell-based, HIV-1
Method: (§1) The resistance test vectors containing a functional luciferase gene cassette were constructed and host cells were transfected with the resistance test vector DNA. The resistant test vectors contained patient-derived reverse transcriptase and protease sequences that were either susceptible or resistant to the antiretroviral agents, such as nucleoside reverse transcriptase inhibitors, non-nucleoside reverse transcriptase inhibitors and protease inhibitors. […] The IC50 values were determined by plotting percent drug inhibition vs. log10 drug concentration.
(§2) Host cells were seeded in 10-cm-diameter dishes and were transfected several days after plating with resistance test vector plasmid DNA and the envelope expression vector. […] HIV capsid protein (p24) levels in the harvested cell culture media were determined by an EIA method as described by the manufacturer (SIAC; Frederick, Md.). […] The inhibitory effect of the drug was determined using the following equation: […]
A resistance test vector was constructed as described in Example 1 from a patient sample designated 98-1058. […] An IC50 was determined for the resistance test vector pool for each drug tested.

[2] = system: P225H-RTV (HIV reverse transcriptase P225H); assay: Phenotypic susceptibility assay, P225H-RTV; type: cell-based, HIV-1; conditions: P225H mutation alone
Method: (§3) Transfections were performed using a calcium-phosphate precipitation procedure. […] Cell lysates were assayed for luciferase activity (FIG. 3).
(§4) The drug inhibition curves are shown in (FIG. 3).
(§5) Resistance test vectors were constructed containing the P225H mutation alone and in combination with other known drug resistance mutations (K103N, Y181C) known to modulate the HIV susceptibility to NNRTIs. […] (Sakar G and Sommar SS (1994) Biotechniques 8(4), 404-407). […] The pattern of phenotypic susceptibility to the NNRTI, delavirdine in the P225H-RTV was altered as compared to wild type.

[3] = system: RTVs containing P225H plus K103N, Y181C or both (K103N+Y181C); assay: Phenotypic susceptibility assay, P225H added to K103N, Y181C or both; type: cell-based, HIV-1; conditions: P225H with K103N
Method: as §3, §4, §5

[4] = system: RTV-209 (patient sample 97-209); assay: Phenotypic susceptibility assay, RTV-209; type: cell-based, HIV-1; conditions: RTV-209, patient-derived pool
Method: as §3, §4
A resistance test vector was constructed as described in Example 1 from a patient sample designated 97-209. This patient had been previously treated with AZT, ddI, d4T and 3TC (NRTIs), indinavir (a PRIs) and adefovir. Isolation of viral RNA and RT/PCR was used to generate a patient derived segment that comprised viral sequences coding for all of PR and aa 1-313 of RT. The PDS was inserted into an indicator gene viral vector to generate resistance test vector designated RTV-209. RTV-209 was then tested in a phenotypic assay to determine accurately and quantitatively the level of susceptibility to a panel of anti-retroviral drugs. […] An IC50 was determined for the resistance test vector pool for each drug tested. […]. The pattern of susceptibility to all of the drugs tested was examined and compared to known patterns of susceptibility.

[5] = system: RTV-955 (patient sample 98-955); assay: Phenotypic susceptibility assay, RTV-955; type: cell-based, HIV-1; conditions: RTV-955, patient-derived pool
Method: as §3, §4
A resistance test vector was constructed as described in Example 1 from a patient sample designated 98-955. This patient had been previously treated with nelfinavir (a PRI) Isolation of viral RNA and RT/PCR was used to generate a patient derived segment that comprised viral sequences coding for all of PR and aa 1-313 of RT. The PDS was inserted into an indicator gene viral vector to generate a resistance test vectors designated RTV-955. RTV-955 was then tested in a phenotypic assay to determine accurately and quantitatively the level of susceptibility to a panel of anti-retroviral drugs. […] An IC50 was determined for the resistance test vector pool for each drug tested. The pattern of susceptibility to all of the drugs tested was examined and compared to known patterns of susceptibility.

[6] = system: patient 780 virus (RT K103N, P225H); assay: Phenotypic susceptibility assay, patient 780; type: cell-based, HIV; conditions: patient 780, FIG. 8B
Description: as §1, with “inhibitors. The resistance test vector viral particles produced by transfecting the resistance test vector DNA into host cells, either in the presence or absence of protease inhibitors, were used to infect target host cells grown either in the absence of NRTI or NNRTI or in the presence of increasing concentrations of the drug.” for “inhibitors.”
as §2

[7] = system: P236L-RTV (HIV reverse transcriptase P236L); assay: Phenotypic susceptibility assay, P236L-RTV; type: cell-based, HIV-1; conditions: P236L mutation alone
Method: as §3, §4
Resistance test vectors were constructed containing the P236L mutation alone and in combination with other known drug resistance mutations (K103N, Y181C) that are known to modulate the susceptibility of HIV-1 to NNRTIs. […] The P236L mutation was also introduced into a RTV containing mutations at K103N, Y181C or both (K103N+Y181C).

| SMILES | fold loss of susceptibility (IC50) [1] [fold] | change in susceptibility compared to wild type control RTV [2] | change in susceptibility compared to the corresponding RTV lacking P225H [3] | fold decrease in susceptibility (IC50) [4] | fold decrease in susceptibility (IC50) [5] [fold] | susceptibility/resistance profile [6] | change in susceptibility compared to wild type reference RTV [7] |
| --- | --- | --- | --- | --- | --- | --- | --- |
| CC(C)Nc1cccnc1N1CCN(C(=O)c2cc3cc(NS(C)(=O)=O)ccc3[nH]2)CC1 [delavirdine] | 250 | more susceptible to delavirdine than the wild type control RTV | more susceptible to inhibition by delavirdine if the P225H mutation was present | 75 fold | 4 | reduced susceptibility | less susceptible to delavirdine than a wild type reference RTV |
| Cc1ccnc2c1NC(=O)c1cccnc1N2C1CC1 [nevirapine] | 120 | No significant change in nevirapine susceptibility | did not significantly change nevirapine susceptibility | greater than 800 fold | 530 | reduced susceptibility | no significant change in nevirapine susceptibility |
